In test [1] the target is T1, GST-JAK2(808-1132) (Homo sapiens, UniProt O60674).
T1 construct: GST-JAK2(808-1132); purchased Invitrogen (Carlsbad, USA) #4288
Put plainly: JAK2 kinase assay (Caliper mobility shift, LabChip 3000). The test is classed as biochemical. In short, it runs like this:
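Recombinant GST-JAK2(808-1132) kinase domain with FITC-labelled JAK3tide peptide substrate and ATP; 60 min at 30 °C, EDTA stop. Substrate/product ratio read by microfluidic mobility shift; compounds at 8 final concentrations, 10 to 0.003 μM.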

The test system of test [2] is JAK1/JAK2-dependent nuclear translocation of STAT1-GFP in HT1080 fibrosarcoma cells. As to the kind of experiment: STAT1 nuclear translocation assay (Cellomics), IFN-γ stimulated HT1080 STAT1-GFP cells. The format is cell-based. In a few lines: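 HT1080 cells stably expressing STAT1-GFP, pre-treated 30 min with compound (10 μM–0.003 μM, 0.1% DMSO), then stimulated 2 h with 100 ng/ml IFN-γ, fixed and Hoechst-stained. Nuclear-cytoplasmic GFP differential imaged over ≥1000 cells/well, normalised to unstimulated and DMSO-stimulated wells for IC50.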

Setting [3] is: Homo sapiens, HT-1080, STAT1 translocation pathway.

Here are results for 27 compounds from patent US8420657B2 (Novartis AG, priority 2008, dated 2013).

The IC50 is the concentration at which inhibition is half-maximal.

T1 sequence (O60674 808-1132): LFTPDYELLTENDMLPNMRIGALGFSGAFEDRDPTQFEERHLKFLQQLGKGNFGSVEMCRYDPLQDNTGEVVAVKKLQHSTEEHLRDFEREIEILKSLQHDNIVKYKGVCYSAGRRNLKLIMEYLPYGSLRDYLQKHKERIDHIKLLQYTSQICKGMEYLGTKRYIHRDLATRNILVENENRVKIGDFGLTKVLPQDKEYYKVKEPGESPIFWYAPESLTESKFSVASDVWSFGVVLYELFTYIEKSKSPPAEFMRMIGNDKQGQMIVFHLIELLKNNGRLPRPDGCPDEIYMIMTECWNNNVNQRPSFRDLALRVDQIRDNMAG

As to `CN1CCN(C(=O)c2ccc(Nc3ncc4ccn(-c5ccc(S(C)(=O)=O)cc5)c4n3)cc2F)CC1` [Example 71, {2-Fluoro-4-[7-(4-methanesulfonyl-phenyl)-7H-pyrrolo[2,3-d]pyrimidin-2-ylamino]-phenyl}-(4-methyl-piperazin-1-yl)-methanone], the IC50 in test [1] is 6.8 nM; in test [2] (setting [3]) it was 362 nM.
As for `CN1CCN(C(=O)c2ccc(Nc3ncc4ccn(-c5ccc(S(C)(=O)=O)cc5)c4n3)cc2C(F)(F)F)CC1` [Example 72, {4-[7-(4-Methanesulfonyl-phenyl)-7H-pyrrolo[2,3-d]pyrimidin-2-ylamino]-2-trifluoromethyl-phenyl}-(4-methyl-piperazin-1-yl)-methanone], the IC50 in test [1] worked out at 3.7 nM; in test [2] (setting [3]) it was 750 nM.
On to `Cc1cc(Nc2ncc3ccn(-c4ccc(S(C)(=O)=O)cc4)c3n2)ccc1C(=O)N1CCN(C)CC1` [Example 73, {4-[7-(4-Methanesulfonyl-phenyl)-7H-pyrrolo[2,3-d]pyrimidin-2-ylamino]-2-methyl-phenyl}-(4-methyl-piperazin-1-yl)-methanone], for which the figures for the IC50 in test [1] and in test [2] (setting [3]) were < 3 nM and 80.5 nM, respectively.
As to `Cc1cc(Nc2ncc3ccn(-c4ccc(S(C)(=O)=O)cc4)c3n2)ccc1C(=O)N1CCOCC1` [Example 74, {4-[7-(4-Methanesulfonyl-phenyl)-7H-pyrrolo[2,3-d]pyrimidin-2-ylamino]-2-methyl-phenyl}-morpholin-4-yl-methanone], the figures for the IC50 in test [1] and in test [2] (setting [3]) were < 3 nM and 75.5 nM, respectively.
Consider `Cc1cc(Nc2ncc3ccn(-c4ccc(S(C)(=O)=O)cc4)c3n2)ccc1C(=O)N1CCCC1` [Example 75, {4-[7-(4-Methanesulfonyl-phenyl)-7H-pyrrolo[2,3-d]pyrimidin-2-ylamino]-2-methyl-phenyl}-pyrrolidin-1-yl-methanone], for which the figures for the IC50 in test [1] and in test [2] (setting [3]) were < 3 nM and 82.5 nM, respectively.
Take `CN1CCN(C(=O)c2cc(Nc3ncc4ccn(-c5ccc(S(C)(=O)=O)cc5)c4n3)ccc2F)CC1` [Example 76, {2-Fluoro-5-[7-(4-methanesulfonyl-phenyl)-7H-pyrrolo[2,3-d]pyrimidin-2-ylamino]-phenyl}-(4-methyl-piperazin-1-yl)-methanone]: the IC50 turned out to be 38 nM in test [1] and 934 nM in test [2] (setting [3]).
Turning to `CS(=O)(=O)c1ccc(-n2ccc3cnc(Nc4ccc(F)c(C(=O)N5CCOCC5)c4)nc32)cc1` [Example 77, {2-Fluoro-5-[7-(4-methanesulfonyl-phenyl)-7H-pyrrolo[2,3-d]pyrimidin-2-ylamino]-phenyl}-morpholin-4-yl-methanone], the IC50 is 38 nM in test [1] and 2620 nM in test [2] (setting [3]).
In the same order, the values of `CCN1CCCC1CNC(=O)c1cc(Nc2ncc3ccn(-c4ccc(S(C)(=O)=O)cc4)c3n2)ccc1F` (stereo not drawn) [Example 78, N-(1-Ethyl-pyrrolidin-2-ylmethyl)-2-fluoro-5-[7-(4-methanesulfonyl-phenyl)-7H-pyrrolo[2,3-d]pyrimidin-2-ylamino]-benzamide] are 29 nM and 545 nM.
As to `CC(=O)c1ccc(Nc2ncc3ccn(-c4ccc(S(C)(=O)=O)cc4)c3n2)cc1` [Example 79, 1-{4-[7-(4-Methanesulfonyl-phenyl)-7H-pyrrolo[2,3-d]pyrimidin-2-ylamino]-phenyl}-ethanone], the results for the IC50 in test [1] and in test [2] (setting [3]) were 4.8 nM and 257 nM, respectively.
As for `CS(=O)(=O)c1ccc(-n2ccc3cnc(Nc4ccc(F)c(C(F)(F)F)c4)nc32)cc1` [Example 80, (4-Fluoro-3-trifluoromethyl-phenyl)-[7-(4-methanesulfonyl-phenyl)-7H-pyrrolo[2,3-d]pyrimidin-2-yl]-amine], the results for the IC50 in test [1] and in test [2] (setting [3]) were 430 nM and 10000 nM, respectively.
For `Cc1cc(Nc2ncc3ccn(-c4ccc(S(C)(=O)=O)cc4)c3n2)ccc1F` [Example 81, (4-Fluoro-3-methyl-phenyl)-[7-(4-methanesulfonyl-phenyl)-7H-pyrrolo[2,3-d]pyrimidin-2-yl]-amine] the same measures were 18 nM and 2700 nM.
For the compound `CC(C)Oc1ccc(Nc2ncc3ccn(-c4cc(F)c(C(=O)N5CCOCC5)c(F)c4)c3n2)cc1` [Example 82, {2,6-Difluoro-4-[2-(4-isopropoxy-phenylamino)-pyrrolo[2,3-d]pyrimidin-7-yl]-phenyl}-morpholin-4-yl-methanone], the IC50 turned out to be 4.1 nM in test [1] and 860 nM in test [2] (setting [3]).
For `CC(C)Oc1ccc(Nc2ncc3ccn(-c4ccc(C(C)(C)C(=O)N5CCOCC5)cc4)c3n2)cc1` [Example 83, 2-{4-[2-(4-Isopropoxy-phenylamino)-pyrrolo[2,3-d]pyrimidin-7-yl]-phenyl}-2-methyl-1-morpholin-4-yl-propan-1-one], the IC50 is < 3 nM in test [1] and 460 nM in test [2] (setting [3]).
Turning to `CC(C)Oc1ccc(Nc2ncc3ccn(-c4ccc(C5(C(=O)N6CCOCC6)CC5)cc4)c3n2)cc1` [Example 84, (1-{4-[2-(4-Isopropoxy-phenylamino)-pyrrolo[2,3-d]pyrimidin-7-yl]-phenyl}-cyclopropyl)-morpholin-4-yl-methanone], the values for the IC50 in test [1] and in test [2] (setting [3]) were < 3 nM and 275 nM, respectively.
For `CC(C)Oc1ccc(Nc2ncc3ccn(-c4ccc(C(=O)N5CCN(C)CC5)c(F)c4)c3n2)cc1` [Example 85, {2-Fluoro-4-[2-(4-isopropoxy-phenylamino)-pyrrolo[2,3-d]pyrimidin-7-yl]-phenyl}-(4-methyl-piperazin-1-yl)-methanone], the IC50 came out at 3.8 nM in test [1] and 3500 nM in test [2] (setting [3]).
Regarding `CC(=O)c1ccc(-n2ccc3cnc(Nc4ccc(OC(C)C)cc4)nc32)cc1` [Example 86, 11-{4-[2-(4-Isopropoxy-phenylamino)-pyrrolo[2,3-d]pyrimidin-7-yl]-phenyl}-ethanone], the IC50 in test [1] is 8 nM; in test [2] (setting [3]), 13000 nM.
For `CS(=O)(=O)c1ccc(-n2ccc3cnc(Nc4ccc(C(=O)N5CCNCC5)cc4)nc32)cc1` [Example 87, {4-[7-(4-Methanesulfonyl-phenyl)-7H-pyrrolo[2,3-d]pyrimidin-2-ylamino]-phenyl}-piperazin-1-yl-methanone] the same measures were 3.8 nM and 18300 nM.
In the case of `Cc1cc(Nc2ncc3ccn(-c4ccc(C(=O)N5CCN(C)CC5)c(F)c4)c3n2)ccc1F` [Example 88, {2-Fluoro-4-[2-(4-fluoro-3-methyl-phenylamino)-pyrrolo[2,3-d]pyrimidin-7-yl]-phenyl}-(4-methyl-piperazin-1-yl)-methanone], the IC50 in test [1] is 8.9 nM; in test [2] (setting [3]) it was 3270 nM.
With `Cc1cc(Nc2ncc3ccn(-c4cc(F)c(C(=O)N5CCOCC5)c(F)c4)c3n2)ccc1F` [Example 89, {2,6-Difluoro-4-[2-(4-fluoro-3-methyl-phenylamino)-pyrrolo[2,3-d]pyrimidin-7-yl]-phenyl}-morpholin-4-yl-methanone], the IC50 is < 3 nM in test [1] and 410 nM in test [2] (STAT1 translocation pathway).
Turning to `Cc1cc(Nc2ncc3ccn(-c4ccc(C(=O)N5CCOCC5)c(Cl)c4)c3n2)ccc1F` [Example 90, {2-Chloro-4-[2-(4-fluoro-3-methyl-phenylamino)-pyrrolo[2,3-d]pyrimidin-7-yl]-phenyl}-morpholin-4-yl-methanone], the IC50 amounted to 3.4 nM in test [1] and 715 nM in test [2] (setting [3]).
As to `Cc1cc(Nc2ncc3ccn(-c4ccc(C(=O)N5CCOCC5)c(C)c4)c3n2)ccc1F` [Example 91, {4-[2-(4-Fluoro-3-methyl-phenylamino)-pyrrolo[2,3-d]pyrimidin-7-yl]-2-methyl-phenyl}-morpholin-4-yl-methanone], the half-inhibitory concentration (IC50) in test [1] is < 3 nM; in test [2] (setting [3]), 435 nM.
Take `Cc1cc(Nc2ncc3ccn(-c4ccc(C(=O)N5CCOCC5)c(F)c4)c3n2)ccc1F` [Example 92, {2-Fluoro-4-[2-(4-fluoro-3-methyl-phenylamino)-pyrrolo[2,3-d]pyrimidin-7-yl]-phenyl}-morpholin-4-yl-methanone]: the IC50 in test [1] is 4.2 nM; in test [2] (setting [3]) it was 260 nM.
Turning to `CN1CCN(Cc2cccc(Nc3ncc4ccn(-c5ccc(S(C)(=O)=O)cc5)c4n3)c2)CC1` [Example 93], the IC50 in test [1] is < 3 nM; in test [2] (setting [3]), 191 nM.
For `CN1CCN(C(=O)c2ccc(Nc3ncc4ccn(-c5ccc(S(C)(=O)=O)cc5)c4n3)cc2Cl)CC1` [Example 94, {2-Chloro-4-[7-(4-methanesulfonyl-phenyl)-7H-pyrrolo[2,3-d]pyrimidin-2-ylamino]-phenyl}-(4-methyl-piperazin-1-yl)-methanone] the same measures were 3.8 nM and 259 nM.
As for `CS(=O)(=O)c1ccc(-n2ccc3cnc(Nc4ccc(C#N)cc4)nc32)cc1` [Example 95, 4-[7-(4-Methanesulfonyl-phenyl)-7H-pyrrolo[2,3-d]pyrimidin-2-ylamino]-benzonitrile], the IC50 in test [1] came out at 16.5 nM; in test [2] (setting [3]), 2360 nM.
Take `CC(C)Oc1ccc(Nc2ncc3ccn(-c4ccc(CN5CCOCC5)c(F)c4)c3n2)cc1` [Example 97, [7-(3-Fluoro-4-morpholin-4-ylmethyl-phenyl)-7H-pyrrolo[2,3-d]pyrimidin-2-yl]-(4-isopropoxy-phenyl)-amine]: the values for the IC50 in test [1] and in test [2] (setting [3]) were 9.4 nM and 1460 nM, respectively.
As for `CC(C)Oc1ccc(Nc2ncc3ccn(-c4ccc(C(=O)N5CCOCC5)c(F)c4)c3n2)cc1` [Example 98, {2-Fluoro-4-[2-(4-isopropoxy-phenylamino)-pyrrolo[2,3-d]pyrimidin-7-yl]-phenyl}-morpholin-4-yl-methanone], the results for the half-inhibitory concentration (IC50) in test [1] and in test [2] (setting [3]) were 5.6 nM and 575 nM, respectively.
